Numbered stars: 1 amine (or outer) side, 2 acyl side, 3 side chain; on linkers, the order of the positions; unused ones are H or OH. Bridge positions count the residues as written; N and C are the ends. Square brackets hold non-standard residues; d marks the D form. Peptide text beside a SMILES is read from it. * marks the point of attachment. TtdsdLys(DOTA)NH2 = NC(=O)[C@@H](CCCCNC(=O)CN1CCN(CC(=O)O)CCN(CC(=O)O)CCN(CC(=O)O)CC1)NC(=O)CCC(=O)NCCCOCCOCCOCCCN*; Acetyl(1-DOTA-4-piperidyl) = O=C(O)CN1CCN(CC(=O)O)CCN(CC(=O)N2CCC(CC(=O)*)CC2)CCN(CC(=O)O)CC1; X7 = O=C(O)CN1CCN(CC(=O)O)CCN(CC(=O)NC2CCN(CC(=O)*)CC2)CCN(CC(=O)O)CC1; DOTA = O=C(O)CN1CCN(CC(=O)O)CCN(CC(=O)*)CCN(CC(=O)O)CC1; Phe(4-Cl) = N[C@@H](Cc1ccc(Cl)cc1)C(=O)O; Propanoyl(3-SO2NH2) = NS(=O)(=O)CCC(=O)*; Arg(Me) = CNC(=N)NCCC[C@H](N)C(=O)O; Ethylenediamine = C(CN[*:2])N[*:1]; NMeF = CN[C@@H](Cc1ccccc1)C(=O)O; hArg = N=C(N)NCCCC[C@H](N)C(=O)O; X1 = O=C(CC1CCN([*:1])CC1)[*:2]; Cit = NC(=O)NCCC[C@H](N)C(=O)O; Tle = CC(C)(C)[C@H](N)C(=O)O; Propanoyl(3-OH) = O=C(CCO)*; Api = NC1(C(=O)O)CCNCC1; Aib = CC(C)(N)C(=O)O
Tests used:
[1] = molecular target: T1, PSMA-expressing C4-2 cells (Homo sapiens, UniProt Q04609); assay: FACS binding assay (competition with 50 nM PSM-0183); conditions: FACS binding, PSMA-expressing C4-2 cells; pIC50 category; read-out: pIC50 [C4-2] CAT (converted)
T1 construct: PSMA-expressing C4-2 cells (ATCC, Cat. No. CRL-3314) were cultured in RPMI-1640; host or cells: C4-2 cells
T1 sequence (Q04609 whole entry): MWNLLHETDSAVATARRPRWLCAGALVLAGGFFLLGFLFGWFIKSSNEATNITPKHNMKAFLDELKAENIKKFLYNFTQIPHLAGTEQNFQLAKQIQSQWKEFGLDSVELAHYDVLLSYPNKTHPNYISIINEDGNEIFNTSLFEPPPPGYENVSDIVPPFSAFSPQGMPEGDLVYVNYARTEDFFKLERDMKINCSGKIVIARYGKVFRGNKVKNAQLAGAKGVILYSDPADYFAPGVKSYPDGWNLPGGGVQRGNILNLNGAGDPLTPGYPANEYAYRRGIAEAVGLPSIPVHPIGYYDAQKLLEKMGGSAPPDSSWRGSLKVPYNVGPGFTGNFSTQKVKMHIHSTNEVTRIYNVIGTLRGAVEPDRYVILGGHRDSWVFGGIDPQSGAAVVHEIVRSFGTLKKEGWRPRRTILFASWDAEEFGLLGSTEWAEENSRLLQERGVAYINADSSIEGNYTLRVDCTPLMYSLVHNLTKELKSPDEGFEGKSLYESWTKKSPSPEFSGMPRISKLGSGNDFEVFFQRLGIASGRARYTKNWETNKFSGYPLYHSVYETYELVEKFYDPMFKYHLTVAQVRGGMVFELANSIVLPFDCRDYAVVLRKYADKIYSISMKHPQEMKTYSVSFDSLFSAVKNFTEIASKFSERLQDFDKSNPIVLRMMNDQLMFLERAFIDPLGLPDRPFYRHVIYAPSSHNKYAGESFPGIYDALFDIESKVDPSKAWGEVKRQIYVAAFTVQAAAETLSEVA
How it was run: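 Competition format: fluorescent tracer PSM-0183 (50 nM) displaced from PSMA on C4-2 cells by a test compound titration over 1 h at 4 °C. Bound tracer was quantified as flow-cytometric AF488 median fluorescence after washing. Four-parameter logistic fits of MFI data gave IC50 and pIC50.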

[2] = molecular target: T2, Fc-fusion protein of human PSMA (hPSMA-Fc) (Homo sapiens, UniProt Q04609); assay: Surface plasmon resonance assay (Biacore T200, single cycle kinetic); assay type: binding; conditions: PSMA SPR assay, hPSMA-Fc, 25° C.; pKD category; read-out: pKD CAT (converted)
T2 construct: purchased Acro Biosystems PSA-H5264
T2 sequence (Q04609 44-750 limits assumed): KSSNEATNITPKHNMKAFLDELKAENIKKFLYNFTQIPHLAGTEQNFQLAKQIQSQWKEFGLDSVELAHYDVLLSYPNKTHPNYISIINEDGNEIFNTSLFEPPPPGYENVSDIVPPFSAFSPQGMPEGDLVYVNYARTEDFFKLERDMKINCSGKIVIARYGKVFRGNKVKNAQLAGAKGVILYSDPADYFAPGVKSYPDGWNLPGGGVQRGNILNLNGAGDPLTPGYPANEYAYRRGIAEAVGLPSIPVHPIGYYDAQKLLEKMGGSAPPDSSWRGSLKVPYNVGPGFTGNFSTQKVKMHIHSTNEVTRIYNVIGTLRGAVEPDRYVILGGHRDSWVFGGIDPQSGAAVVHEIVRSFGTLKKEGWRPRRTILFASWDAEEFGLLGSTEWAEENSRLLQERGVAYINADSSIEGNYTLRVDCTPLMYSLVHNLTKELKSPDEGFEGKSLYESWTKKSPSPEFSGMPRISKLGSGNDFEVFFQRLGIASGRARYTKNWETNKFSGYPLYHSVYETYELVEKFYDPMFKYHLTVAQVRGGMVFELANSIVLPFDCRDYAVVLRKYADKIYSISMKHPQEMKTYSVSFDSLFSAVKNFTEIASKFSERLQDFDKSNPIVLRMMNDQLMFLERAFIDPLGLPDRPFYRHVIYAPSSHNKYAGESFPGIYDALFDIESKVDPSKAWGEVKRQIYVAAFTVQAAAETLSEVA
How it was run: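 KD, expressed as pKD, came from 1:1 Langmuir fits of reference- and buffer-blank-subtracted SPR data. The runs were single-cycle kinetics at 25° C in HBST/0.1% DMSO over human PSMA-Fc, captured to ~1000 RU on a peptide-coated CM5 surface and regenerated with 10 mM glycine pH 1.5.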

Row | SMILES | IC50 [1] | Kd [2]
1 | C[C@@H](O)[C@H](NC(=O)[C@@H](NC(=O)[C@@H]1CSSC[C@H](NC(=O)[C@H](Cc2ccc(Cl)cc2)NC(=O)C(C)(C)NC(=O)[C@@H](NC(=O)CC2CCN(C(=O)CN3CCN(CC(=O)O)CCN(CC(=O)O)CCN(CC(=O)O)CC3)CC2)[C@@H](C)O)C(=O)N[C@@H](CCCCN)C(=O)N[C@@H](CCCCNC(=N)N)C(=O)NC(C)(C)C(=O)N[C@@H](CC(N)=O)C(=O)N1)C(C)(C)C)C(N)=O [PSM-0317, DOTA-Cmp-Thr-Aib-Pcf-[Cys-Lys-Har-Aib-Asn-Cys]-Tle-Thr-NH2] ({DOTA}-[X1]T[Aib][Phe(4-Cl)]CK[hArg][Aib]NC[Tle]T-NH2; disulfide 5-10) | < 0.2 µM | < 0.0126 µM
2 | CC(=O)N[C@H](C(=O)NC(C)(C)C(=O)N[C@@H](Cc1ccc(Cl)cc1)C(=O)N[C@H]1CSSC[C@@H](C(=O)N[C@H](C(=O)N[C@H](C(=O)N[C@@H](CC(=O)O)C(N)=O)[C@@H](C)O)C(C)(C)C)NC(=O)[C@H](CC(N)=O)NC(=O)C(C)(C)NC(=O)[C@H](CCCNC(=N)N)NC(=O)[C@H](CCCCN)NC1=O)[C@@H](C)O [PSM-0318, Ac-Thr-Aib-Pcf-[Cys-Lys-Arg-Aib-Asn-Cys]-Tle-Thr-Asp-NH2] (Ac-T[Aib][Phe(4-Cl)]CKR[Aib]NC[Tle]TD-NH2; disulfide 4-9) | < 0.2 µM | < 0.0126 µM
3 | CC(=O)N[C@H](C(=O)N[C@@H](C)C(=O)N(C)[C@@H](Cc1ccccc1)C(=O)N[C@H]1CSSC[C@@H](C(=O)N[C@H](C(=O)N[C@H](C(N)=O)[C@@H](C)O)C(C)(C)C)NC(=O)[C@H](CC(N)=O)NC(=O)C(C)(C)NC(=O)[C@H](CCCNC(=N)N)NC(=O)[C@H](CCCCN)NC1=O)[C@@H](C)O [PSM-0319, Ac-Thr-Ala-Nmf-[Cys-Lys-Arg-Aib-Asn-Cys]-Tle-Thr-NH2] (Ac-TA[NMeF]CKR[Aib]NC[Tle]T-NH2; disulfide 4-9) | < 0.2 µM | 0.0126 to 0.126 µM
4 | CNC(=N)NCCC[C@@H]1NC(=O)[C@H](CCCCN)NC(=O)[C@@H](NC(=O)[C@H](Cc2ccc(Cl)cc2)NC(=O)C(C)(C)NC(C)=O)CSSC[C@@H](C(=O)N[C@H](C(=O)NCCNC(=O)CN2CCN(CC(=O)O)CCN(CC(=O)O)CCN(CC(=O)O)CC2)C(C)(C)C)NC(=O)[C@H](CC(N)=O)NC(=O)C(C)(C)NC1=O [PSM-0320, Ac-Aib-Pcf-[Cys-Lys-Arg(Me)-Aib-Asn-Cys]-Tle-en-DOTA] (Ac-[Aib][Phe(4-Cl)]CK[Arg(Me)][Aib]NC[Tle]-{Ethylenediamine-DOTA}; disulfide 3-8) | < 0.2 µM | < 0.0126 µM
5 | CC(=O)N[C@H](C(=O)NC(C)(C)C(=O)N[C@@H](Cc1ccccc1)C(=O)N[C@H]1CSSC[C@@H](C(=O)N[C@H](C(=O)N[C@H](C(N)=O)[C@@H](C)O)C(C)(C)C)NC(=O)[C@H](CC(N)=O)NC(=O)C2(CCN(C(=O)CN3CCN(CC(=O)O)CCN(CC(=O)O)CCN(CC(=O)O)CC3)CC2)NC(=O)[C@H](CCCNC(=N)N)NC(=O)[C@H](CCCCN)NC1=O)[C@@H](C)O [PSM-0321, Ac-Thr-Aib-Phe-[Cys-Lys-Arg-Apc (DOTA)-Asn-Cys]-Tle-Thr-NH2] (Ac-T[Aib]FCKR[Api](DOTA)NC[Tle]T-NH2; disulfide 4-9) | < 0.2 µM | < 0.0126 µM
6 | CC(=O)N[C@H](C(=O)NC(C)(C)C(=O)N[C@@H](Cc1ccc(Cl)cc1)C(=O)N[C@H]1CSSC[C@@H](C(=O)N[C@H](C(=O)N[C@H](C(=O)N[C@H](CCCCNC(=O)CC2CCN(C(=O)CN3CCN(CC(=O)O)CCN(CC(=O)O)CCN(CC(=O)O)CC3)CC2)C(N)=O)[C@@H](C)O)C(C)(C)C)NC(=O)[C@H](CC(N)=O)NC(=O)C(C)(C)NC(=O)[C@H](CCCNC(N)=O)NC(=O)[C@H](CCCCN)NC1=O)[C@@H](C)O [PSM-0322, Ac-Thr-Aib-Pcf-[Cys-Lys-Cit-Aib-Asn-Cys]-Tle-Thr-lys (DOTA-Cmp)-NH2] (Ac-T[Aib][Phe(4-Cl)]CK[Cit][Aib]NC[Tle]T[dK](Acetyl(1-DOTA-4-piperidyl))-NH2; disulfide 4-9) | < 0.2 µM | 0.0126 to 0.126 µM
7 | CC(=O)N[C@@H](Cc1ccccc1)C(=O)N[C@H]1CSSC[C@@H](C(=O)N[C@@H](CC(C)C)C(=O)N[C@H](C(=O)N[C@@H](CC(=O)O)C(=O)NCCCOCCOCCOCCCNC(=O)CCC(=O)N[C@H](CCCCNC(=O)CN2CCN(CC(=O)O)CCN(CC(=O)O)CCN(CC(=O)O)CC2)C(N)=O)[C@@H](C)O)NC(=O)[C@H](CC(N)=O)NC(=O)[C@H](C)NC(=O)[C@H](CCCNC(=N)N)NC(=O)[C@H](CCCCN)NC1=O [PSM-0323, Ac-Phe-[Cys-Lys-Arg-Ala-Asn-Cys]-Lou-Thr-Asp-Ttds-lys(DOTA)-NH2] (Ac-FCKRANCLTD-{TtdsdLys(DOTA)NH2}; disulfide 2-7) | > 3.16 µM | > 0.501 µM
8 | C[C@@H](O)[C@H](NC(=O)[C@@H](NC(=O)[C@@H]1CSSC[C@H](NC(=O)[C@H](Cc2ccc(Cl)cc2)NC(=O)C(C)(C)NC(=O)CCO)C(=O)N[C@@H](CCCCN)C(=O)N[C@@H](CCCNC(=N)N)C(=O)N[C@@H](CCCCNC(=O)CN2CCC(NC(=O)CN3CCN(CC(=O)O)CCN(CC(=O)O)CCN(CC(=O)O)CC3)CC2)C(=O)N[C@@H](CC(N)=O)C(=O)N1)C(C)(C)C)C(N)=O [PSM-0324, HPA-Aib-Pcf-[Cys-Lys-Arg-Lys(DOTA-APAc)-Asn-Cys]-Tle-Thr-NH2] ({Propanoyl(3-OH)}-[Aib][Phe(4-Cl)]CKRK(X7)NC[Tle]T-NH2; disulfide 3-8) | < 0.2 µM | < 0.0126 µM
9 | CC(=O)N[C@H](C(=O)NC(C)(C)C(=O)N[C@@H](Cc1ccccc1)C(=O)N[C@H]1CSSC[C@@H](C(=O)N[C@H](C(=O)N[C@H](C(N)=O)[C@@H](C)O)C(C)(C)C)NC(=O)[C@H](CC(N)=O)NC(=O)[C@H](CCCCNC(=O)CN2CCN(CC(=O)O)CCN(CC(=O)O)CCN(CC(=O)O)CC2)NC(=O)[C@H](CCCNC(=N)N)NC(=O)[C@H](CCCCN)NC1=O)[C@@H](C)O [PSM-0326, Ac-Thr-Aib-Phe-[Cys-Lys-Arg-Lys(DOTA)-Asn-Cys]-Tle-Thr-NH2] (Ac-T[Aib]FCKRK(DOTA)NC[Tle]T-NH2; disulfide 4-9) | < 0.2 µM | 0.0126 to 0.126 µM
10 | CC(=O)N[C@H](C(=O)NC(C)(C)C(=O)N[C@@H](Cc1ccccc1)C(=O)N[C@@H]1CSSC[C@H](C(=O)N[C@H](C(=O)N[C@H](C(N)=O)[C@@H](C)O)C(C)(C)C)NC(=O)[C@H](CC(N)=O)NC(=O)C(C)(C)NC(=O)[C@H](CCCNC(=N)N)NC(=O)[C@H](CCCCN)NC1=O)[C@@H](C)O [PSM-0327, Ac-Thr-Aib-Phe-[cys-Lys-Arg-Aib-Asn-cys]-Tle-Thr-NH2] (Ac-T[Aib]F[dC]KR[Aib]N[dC][Tle]T-NH2; disulfide 4-9) | > 3.16 µM | > 0.501 µM
11 | C[C@@H](O)[C@H](NC(=O)[C@@H](NC(=O)[C@@H]1CSSC[C@H](NC(=O)[C@H](Cc2ccc(Cl)cc2)NC(=O)C(C)(C)NC(=O)CCS(N)(=O)=O)C(=O)N[C@@H](CCCCN)C(=O)N[C@@H](CCCNC(=N)N)C(=O)NC(C)(C)C(=O)N[C@@H](CC(N)=O)C(=O)N1)C(C)(C)C)C(=O)N[C@H](CCCCNC(=O)CN1CCN(CC(=O)O)CCN(CC(=O)O)CCN(CC(=O)O)CC1)C(N)=O [PSM-0328, SaPr-Aib-Pcf-[Cys-Lys-Arg-Aib-Asn-Cys]-Tle-Thr-lys(DOTA)-NH2] ({Propanoyl(3-SO2NH2)}-[Aib][Phe(4-Cl)]CKR[Aib]NC[Tle]T[dK](DOTA)-NH2; disulfide 3-8) | < 0.2 µM | < 0.0126 µM
12 | CC(=O)N[C@H](C(=O)NC(C)(C)C(=O)N[C@@H](Cc1ccc(Cl)cc1)C(=O)N[C@H]1CSSC[C@@H](C(=O)N[C@H](C(=O)N[C@H](C(=O)N2CCC(CC(=O)N[C@H](CCCCNC(=O)CN3CCN(CC(=O)O)CCN(CC(=O)O)CCN(CC(=O)O)CC3)C(N)=O)CC2)[C@@H](C)O)C(C)(C)C)NC(=O)[C@H](CC(N)=O)NC(=O)C(C)(C)NC(=O)[C@H](CCCNC(N)=O)NC(=O)[C@H](CCCCN)NC1=O)[C@@H](C)O [PSM-0329, Ac-Thr-Aib-Pcf-[Cys-Lys-Cit-Aib-Asn-Cys]-Tle-Thr-Cmp-lys(DOTA)-NH2] (Ac-T[Aib][Phe(4-Cl)]CK[Cit][Aib]NC[Tle]T[X1][dK](DOTA)-NH2; disulfide 4-9) | < 0.2 µM | 0.0126 to 0.126 µM
13 | CC(=O)N[C@H](C(=O)N[C@@H](C)C(=O)N[C@@H](Cc1ccccc1)C(=O)N[C@H]1CSSC[C@@H](C(=O)N[C@@H](CC(C)C)C(=O)N[C@H](C(=O)N[C@@H](CC(=O)O)C(=O)NCCCOCCOCCOCCCNC(=O)CCC(=O)N[C@H](CCCCNC(=O)CN2CCN(CC(=O)O)CCN(CC(=O)O)CCN(CC(=O)O)CC2)C(N)=O)[C@@H](C)O)NC(=O)[C@H](CC(N)=O)NC(=O)[C@H](C)NC(=O)[C@H](CCCNC(=N)N)NC(=O)[C@H](CCCCN)NC1=O)[C@@H](C)O [PSM-0330, Ac-Thr-Ala-Phe-[Cys-Lys-Arg-Ala-Asn-Cys]-Leu-Thr-Asp-Ttds-lys(DOTA)-NH2] (Ac-TAFCKRANCLTD-{TtdsdLys(DOTA)NH2}; disulfide 4-9) | 0.2 to 1.26 µM | 0.0126 to 0.126 µM
14 | CC(=O)N[C@H](C(=O)NC(C)(C)C(=O)N[C@@H](Cc1ccccc1)C(=O)N[C@H]1CSSC[C@H](C(=O)N[C@H](C(=O)N[C@H](C(N)=O)[C@@H](C)O)C(C)(C)C)NC(=O)[C@H](CC(N)=O)NC(=O)C(C)(C)NC(=O)[C@H](CCCNC(=N)N)NC(=O)[C@H](CCCCN)NC1=O)[C@@H](C)O [PSM-0331, Ac-Thr-Aib-Phe-[Cys-Lys-Arg-Aib-Asn-cys]-Tle-Thr-NH2] (Ac-T[Aib]FCKR[Aib]N[dC][Tle]T-NH2; disulfide 4-9) | 0.2 to 1.26 µM | > 0.501 µM

Reference: patent US20260083865A1, “PROSTATE SPECIFIC MEMBRANE ANTIGEN (PSMA) LIGANDS AND USE THEREOF” (priority 2022, published 2026)
